Laboratory results: patent US10947196B2, “Beta adrenergic agonist and methods of using the same” (CURASEN THERAPEUTICS, INC., priority 2019, dated 2021)
Like-named read-outs stand apart in the source and are kept apart here.

Experiments:
[1] = Hepatocyte stability (dog); assay type: in vitro ADME; details: 0.5×10^6 viable cells/mL
Method: 10 mM and 100 μM stock solutions of test compound(s) and a positive control were prepared in appropriate solvent (DMSO). In separate conical tubes, the 10 mM test compound and the positive control were diluted to 100 μM by combining 198 μL of 50% acetonitrile/50% water and 2 μL of 10 mM stock. The 100 μM test compound and the positive control were diluted to 30 μM by combining 140 μL of 50% acetonitrile/50% water and 60 μL of 100 μM stock solution. The 100 μM test compound and the positive control were diluted to 10 μM by combining 180 μL of 50% acetonitrile/50% water and 20 μL of 100 μM stock solution. The 100 μM test compound and the positive control were diluted to 3 μM by combining 194 μL of 50% acetonitrile/50% water and 6 μL of 100 μM stock solution.
Incubation medium (William's E Medium supplemented with GlutaMAX) and hepatocyte thawing medium was placed in a 37° C. water bath, and allowed to warm for at least 15 minutes prior to use. A vial of cryopreserved hepatocytes from storage was then removed, ensuring that the vial remains at cryogenic temperatures until thawing process ensues. Cells were thawed by placing the vial in a 37° C. water bath and gently shaking the vial for 2 minutes. After thawing was completed, the vial was sprayed with 70% ethanol and transferred to a biosafety cabinet.
A wide-bore pipette tip was used to transfer hepatocytes into 50 mL conical tube containing thawing medium. The 50 mL conical tube was placed into a centrifuge and spun at 100 g for 10 minutes. Upon completion of spin, the thawing medium was aspirated and the hepatocytes were resuspended in enough incubation medium to yield ˜1.5×10^6 cells/mL.
Using AOPI staining solution, cells were counted and the viable cell density was determined. Cells with poor viability (<75% viability) are not acceptable for use. […]
All calculations were carried out using Microsoft Excel. Peak areas were determined from extracted ion chromatograms. […]
The in vitro half-life (in vitro t1/2) was determined from the slope value: in vitro t1/2=0.693/k

[2] = target: β1-adrenergic receptor (Homo sapiens (Human), UniProt P08588); assay: cAMP Gs dynamic HTRF assay, β1 expressing CHO cells; assay type: cell-based
β1-adrenergic receptor, sequence (P08588 whole entry, species assumed): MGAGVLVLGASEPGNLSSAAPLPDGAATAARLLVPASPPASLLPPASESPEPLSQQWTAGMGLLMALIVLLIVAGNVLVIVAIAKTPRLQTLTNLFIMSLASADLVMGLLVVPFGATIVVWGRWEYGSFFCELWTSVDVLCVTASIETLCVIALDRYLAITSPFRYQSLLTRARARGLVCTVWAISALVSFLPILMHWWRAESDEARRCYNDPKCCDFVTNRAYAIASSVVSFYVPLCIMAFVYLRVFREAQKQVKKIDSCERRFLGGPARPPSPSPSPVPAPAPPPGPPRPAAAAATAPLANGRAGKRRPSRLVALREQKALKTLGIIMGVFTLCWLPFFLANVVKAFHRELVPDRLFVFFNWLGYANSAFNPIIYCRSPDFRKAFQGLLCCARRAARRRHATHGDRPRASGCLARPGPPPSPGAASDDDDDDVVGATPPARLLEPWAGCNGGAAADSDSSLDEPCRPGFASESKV
Summary of the method: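 Intracellular cAMP quantified by Eu-donor/d2-acceptor HTRF after 30 min compound exposure at 37° C in stimulation buffer with IBMX. Concentrations ran 10 μM top, 5-fold steps, 10 points. Cell lines: 1321N1 astrocytoma and CHO expressing β1 or β2; EC50 via four-parameter fit, relative efficacy against isoproterenol.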

[3] = B1-AR, CHO-K cells, read-out: Average EC50 [Receptor subtype: B1-AR, Cell type: CHO-K]

Row | SMILES | Hepatocyte stability, Dog [1] | Average pEC50 [Receptor subtype: B1-AR; Cell type: CHO-K1 (HitHunter)] ([2]; B1-AR) | EC50 [2, 3] [nM] | EC50 ([2]; β1 EC50 (nM), cAMP HTRF) [nM]
1 | CC(C)(C)NC[C@H](O)c1cccc(C#N)n1 [Compound 03-5, (S)-6-(2-(tert-butylamino)-1-hydroxyethyl)picolinonitrile] | 5.94-7.63 μL/min/10^6 cells | C (C = <7-6) | 100 to 1000 | 
2 | CC(C)(C)NC[C@H](O)c1cccc(C(F)(F)F)n1 [Compound 03-3] | 5.3 μL/min/10^6 cells |  |  | 10 to 100
3 | Cc1ncccc1[C@@H](O)CNC(C)(C)C [Compound 03-115] | 8.13 μL/min/10^6 cells | C-D | > 1000 | 
